Paper PMC4313117, “Elabela-Apelin Receptor Signaling Pathway is Functional in Mammalian Systems” (Scientific Reports, 2015)

Experiments:
mouse aortic rings = assay: Vasorelaxation of U46619-contracted mouse aortic rings; design: species or system mouse (C57BL/6)
Excerpt: Changes in tension were expressed as the percentage decrease in reference to precontraction tension. […] Values are means ± SEM. (n = 5–10). **p < 0.01, compared to aortas with endothelium at the same concentration points of the compound.
Aortas were isolated from 8–10 weeks male wild-type C57BL/6 mice, cut into 3-mm rings and mounted in organ chambers (PowerLab, AD Instruments, CO, USA) in Kreb's buffer as described previously. The contractile response was elicited by vasoconstrictor U46619 (30 nM) to produce contraction. […] In some preparations, the endothelium was mechanically removed from denuded arteries by gentle rubbing off the intimal surface with a wooden stick.

[1] = system: vascular tone; blood pressure; conditions: cited from earlier work
Description: The aortic rings were induced to contraction with vasoconstrictor U46619 (final concentration, 30 nM).

[2] = system: mouse heart failure model of coronary artery ligation; conditions: cited from earlier work
Excerpt: Apelin was considered the only endogenous ligand for APJ since isolation of the apelin peptide. Apelin is expressed in multiple tissues including adipose tissue, heart, vasculature, brain and kidney, whereas APJ is more broadly expressed in tissues such as heart, blood vessels and adipose tissue. […] At the receptor level, APJ is a GPCR coupled to Gi and/or Gq[15][16]. Activation of APJ results in biochemical responses i ... || Recently, the therapeutic potential of apelin as a reagent for heart failure has been increasingly recognized.

human saphenous vein = conditions: cited from earlier work
HUVECs = assay: In vitro angiogenesis (tubular formation) assay in HUVECs; format: cell-based, human; conditions: for increase in number of branch points: HUVECs on Geltrex, counted after 10 hr; for increase in number of branch points / increase in tubular formation, APJ-overexpressing HUVECs: n = 5
Excerpt: ELA is a secreted hormone and expressed in adult kidney and prostate, and may, therefore, circulate in blood. Since ELA is required for normal development of cardiovascular system, blood vessel could be a target of ELA action. Vascular tube formation assay is a well-used in vitro study to assess angiogenic factors and conditions in which vascular cells, [e.g. human umbilical vascular endothelial cells (HUVECs)], can form tube-like structures under pro-angiogenic conditions in culture wells coated with Geltrex containing extra-cellular matrix. The number of branch points is used as an indicator for the strength of angiogenic stimuli.
Figure 4 Stimulation of tubule-like structure by ELA-APJ signaling. […] (B), Reverse transcription PCR of human APJ expression of HUVECs infected with APJ or APJ siRNA lentiviral constructs.
Tubular formation assay for angiogenesis was conducted in 96-well plates which were coated with 50 μl of Geltrex (Life Technologies, A14133-02) and left for polymerization by incubation for 1 hr at 37°C. […] Quantification of the tubular formation was performed after 10 hr of culture by calculating the number of branching point formed in each well under an inverted phase contrast photomicroscope (Olympus IX50), as described.

APJ = conditions: zebrafish studies; cited from earlier work
Excerpt: ELA deficiency leads to severe defects in heart development and lymphogenesis. ...

## apelin-13
Mouse aortic rings; apelin-13, denuded vs intact vessels, n = 5–10
  reduction of relaxing effect by removal of endothelium: 48%
Mouse aortic rings; apelin-13, endothelium-denuded, U46619 30 nM precontraction, n = 5–10
  relaxation, denuded vessels: 31%
Mouse aortic rings; apelin-13 at 10^−6 M, U46619 30 nM precontraction, n = 5–10
  maximum relaxation, endothelium-intact vessels: 79%

## apelin
[1]
  vascular tone: relax vascular tone
  vasodilatory effect: a vasodilatory effect of apelin is reported
[1]; no ref number printed at this statement
  blood pressure: lower blood pressure
[1]; vessels denuded of endothelium
  vasoconstriction in denuded vessels: vasoconstriction is also noted
[2]; mouse heart failure model of coronary artery ligation
  cardiac protection, contractility, infarction size, stem cell mobilization: have cardiac-protective effect and can increase heart contractility, reduce infarction size and promote cardiac stem cell mobilization to the infarct area
[2]; various animal models, infusion
  cardioprotective effect: appears to have cardioprotective effect in various animal models
Human saphenous vein
  vasoconstriction: vasoconstriction is also noted in human saphenous vein

## CC(=O)OCC[N+](C)(C)C [acetylcholine]
Mouse aortic rings; endothelium-denuded or L-NAME-treated arteries
  relaxation by acetylcholine (control of endothelium removal and NOS inhibition): inability of acetylcholine to relax the arteries

## CSCC[C@H](NC(=O)[C@@H](NC(=O)[C@H](CC(C)C)NC(=O)[C@H](CC(N)=O)NC(=O)[C@@H](NC(=O)[C@@H]1CCCN1C(=O)[C@H](CCCNC(=N)N)NC(=O)[C@@H](N)CCC(N)=O)C(C)C)[C@@H](C)O)C(=O)N[C@@H](CCCNC(=N)N)C(=O)N[C@@H](CCCNC(=N)N)C(=O)N[C@@H](CCCCN)C(=O)N[C@@H](CC(C)C)C(=O)N[C@@H](CCCNC(=N)N)C(=O)N[C@@H](CCCCN)C(=O)N[C@@H](Cc1c[nH]cn1)C(=O)N[C@@H](CC(N)=O)C(=O)N[C@H]1CSSC[C@@H](C(=O)N[C@@H](CCSC)C(=O)N2CCC[C@H]2C(=O)N[C@@H](CC(C)C)C(=O)N[C@@H](Cc2c[nH]cn2)C(=O)N[C@@H](CO)C(=O)N[C@@H](CCCNC(=N)N)C(=O)N[C@H](C(=O)N2CCC[C@H]2C(=O)N[C@@H](Cc2ccccc2)C(=O)N2CCC[C@H]2C(=O)O)C(C)C)NC(=O)[C@H](CCCNC(=N)N)NC(=O)[C@H](CCCNC(=N)N)NC(=O)[C@H](CCC(N)=O)NC(=O)[C@H](CC(C)C)NC1=O [ELA]
HUVECs; ELA 0.1 μM, APJ siRNA
  tubular formation, APJ-knock down HUVECs: not effective in inducing the formation of tubular structures
HUVECs; ELA 0.1 μM
  increase in number of branch points: 71.9%
HUVECs; ELA 0.1 μM, compared to empty vector control cells with ELA
  increase in tubular formation, APJ-overexpressing HUVECs: 63.3%
HUVECs; ELA 0.1 μM, compared to empty vector control cells without ELA
  increase in tubular formation, APJ-overexpressing HUVECs: 190.2%
HUVECs; ELA 0.5 μM
  increase in number of branch points: 222.8%
HUVECs; ELA 1 μM
  increase in number of branch points: 266.7%
Mouse aortic rings; 1 mM L-NAME for 30 min, then U46619, followed by ELA
  relaxation with L-NAME pretreatment: No significant difference was observed between the L-NAME-treated and non-treated vessels
Mouse aortic rings; U46619 30 nM precontraction, ELA 10^−9 to 10^−6 M cumulative, n = 5–10
  maximum relaxation, endothelium-intact vessels: 73.7%
Mouse aortic rings; endothelium-denuded, ELA at corresponding concentrations, n = 5–10
  decrease in relaxation in denuded vs intact vessels: ~ 20%
APJ
  binding and activation of APJ: binds and activates APJ
